Like-named read-outs stand apart in the source and are kept apart here.
System: Coptotermes formosanusus Shiraki
Assay: Termite control soil treatment test (Japan Wood Preservation Association Standards No. 13, 1987): bored depth, damage by eating, termite control effect
Type: in vivo
Settings: for Bored depth (mm) 14 days later: treated soil layer 1 cm
From the text: In the description of these embodiments, the term “part(s)” means part(s) by weight. The test method of embodiments was in accordance with Japan Wood Preservation Association Standards No. 13, 1987, “Standards for Testing Methods of Termite Controlling Effects and Performance of Termite Controlling Agents for Soil Treatment (I)”.
A testing apparatus was used in which two glass cylinders (each about 5 cm in diameter and about 12 cm in height) are connected at about 2 cm from the bottom with a glass tube about 1.5 cm in diameter and about 10 cm in length (graduated at 5-mm intervals for 5 cm at the center). The one glass cylinder was filled with about 60 g of non-treated soil adjusted to a moisture content of about 25%, and the other glass cylinder was filled with about 0.29 g of filter paper (5.5 mm in diameter). The glass tube was filled, at a thickness of 1 cm, with test soil prepared by mixing 2.4 g of non-treated sandy soil which had passed through a 20-mesh screen and had been dried at 60° C. until a constant weight had been achieved, with 0.45 g of the solution of the test composition of a predetermined concentration, and the mixture was allowed to stand for 3 weeks in a room without weather resistance treatment. The glass tube was connected to the glass cylinders.
In the glass cylinder filled with non-treated soil, 200 workers and 20 soldiers of Coptotermes formosanusus Shiraki were placed, and the testing apparatus was kept at a constant temperature chamber controlled at a temperature of 28° C., and a relative humidity of 70% or higher.
The bored depth (millimeters=mm), damage by eating, and the termite control effect were determined 14 days after insects were put in place, and the effect was evaluated in accordance with the following criteria: […]

[1] = Concentration (%) 0.005, single ingredient
[2] = Concentration (%) 0.01, single ingredient
[3] = Coptotermes, soil, 336 h, read-out: Termite control effect 14 days later
[4] = Concentration (%) 0.025, single ingredient
[5] = Concentration (%) 0.05, single ingredient
[6] = Concentration (%) 0.02, single ingredient
[7] = Concentration (%) 0.1, single ingredient
[8] = Concentration (%) 0.002, single ingredient

Structure (SMILES)	Damage by eating 14 days later [1]	Bored depth (mm) 14 days later [1]	Damage by eating 14 days later [2]	Bored depth (mm) 14 days later [2]	pest or weed control at 0.005 % [3]	pest or weed control at 0.01 % [3]	Damage by eating 14 days later [5]	Bored depth (mm) 14 days later [5]	pest or weed control at 0.05 % [3]	Damage by eating 14 days later [6]	Bored depth (mm) 14 days later [6]	further results
Cc1c(COC(=O)[C@@H]2[C@H](/C=C(\Cl)C(F)(F)F)C2(C)C)cccc1-c1ccccc1 (racemic) [Bifenthrin, 2-methylbiphenyl-3-yl-methyl (Z)-1RS,3RS)-3-(2-chloro-3,3,3-trifluoroprop-1-enyl)-2-2-dimnethylcyclopropane carboxylate]	+++ (51% or more compared with non-treatment)	>10 mm	+++ (51% or more compared with non-treatment)	>10 mm	< 49%	< 49%	–	–	–	–	–	–
CC1(C)[C@H](C(=O)O[C@@H](C#N)c2ccc(F)c(Oc3ccccc3)c2)[C@@H]1C=C(Cl)Cl (racemic) [Cyfluthrin, (RS)-a-cyano-4-fluoro-3-phenoxybenzyl (1RS, 3RS)-(1RS, 3RS)-3-(2,2-dichlorovinyl)-2,2-dimethylcyclopropane carboxylate]	+++ (51% or more compared with non-treatment)	>10 mm	–	–	–	–	–	–	–	–	–	Termite control effect 14 days later [1]: D (49% lethal or less); Damage by eating 14 days later [4]: None; Termite control effect 14 days later [4]: D (49% lethal or less); Bored depth (mm) 14 days later [4]: >10 mm
CC1(C)C(C=C(Cl)Cl)C1C(=O)OC(C#N)c1cccc(Oc2ccccc2)c1 (racemic) [Cypermethrin, (RS)-a-cyano-3-phenoxybenzyl (1RS,3RS)-(1RS,3SR)-3-(2,2-dichlorovinyl)-2,2-dimethylcyclopropane carboxylate]	+++ (51% or more compared with non-treatment)	>10 mm	–	–	< 49%	–	–	–	–	–	–	Damage by eating 14 days later [4]: None; Bored depth (mm) 14 days later [4]: >10 mm; pest or weed control at 0.025 % [3]: < 49%
CC(C)C(C(=O)OC(C#N)c1cccc(Oc2ccccc2)c1)c1ccc(Cl)cc1 (racemic) [Fenvalerate, (RS)-a-cyano-3-phenoxybenzyl (RS)-2-(4-chlorophenyl)-3-methylbutanoate]	–	–	+++ (51% or more compared with non-treatment)	>10 mm	–	< 49%	+ (10% or less compared with non-treatment)	>10 mm	100%	–	–	–
CC1(C)C(C=C(Cl)Cl)C1C(=O)OCc1cccc(Oc2ccccc2)c1 (racemic) [Permethrin, 3-phenoxybenzyl (1RS,3RS)-(1RS,3RS)-(2,2-dichlorovinyl)-2,2-diimethylcyclopropane carboxylate]	–	–	–	–	–	–	–	–	–	+++ (51% or more compared with non-treatment)	>10 mm	Damage by eating 14 days later [7]: None; Bored depth (mm) 14 days later [7]: >10 mm; pest or weed control at 0.02 % [3]: < 49%; pest or weed control at 0.1 % [3]: < 49%
N#Cc1nn(-c2c(Cl)cc(C(F)(F)F)cc2Cl)c(N)c1[S+]([O-])C(F)(F)F (stereo not drawn) [Compound A, 5-amino-3-cyano-1-(2,6-dichloro-4-trifluoromethylphenyl)-4-trifluoromethylsulphinylpyrazole]	++ (11-50% or less compared with non-treatment)	>10 mm	+ (10% or less compared with non-treatment)	>10 mm	100%	100%	–	–	–	+ (10% or less compared with non-treatment)	>10 mm	pest or weed control at 0.02 % [3]: 100%
CCOc1ccc(C(C)(C)COCc2cccc(Oc3ccccc3)c2)cc1 [Ethofenprox, 2-(4-ethoxyphenyl)-2-methylpropyl-3-phenoxybenzyl ether]	–	–	–	–	–	–	–	–	–	+++ (51% or more compared with non-treatment)	>10 mm	Termite control effect 14 days later [6]: D (49% lethal or less); Damage by eating 14 days later [7]: None; Termite control effect 14 days later [7]: D (49% lethal or less); Bored depth (mm) 14 days later [7]: >10 mm
CC(C)[C@H](Nc1ccc(C(F)(F)F)cc1Cl)C(=O)OC(C#N)c1cccc(Oc2ccccc2)c1 (stereo partly drawn) [Fluvalinate]	–	–	–	–	–	–	+++ (51% or more compared with non-treatment)	>10 mm	< 49%	–	–	–
CCOc1ccc([Si](C)(C)CCCc2ccc(F)c(Oc3ccccc3)c2)cc1 [Silafluofen, 4-ethoxyphenyl-[3-(3-phenoxy-4-fluorophenyl)propyl](dimnethyl)silane]	–	–	+++ (51% or more compared with non-treatment)	>10 mm	–	< 49%	+ (10% or less compared with non-treatment)	>10 mm	100%	–	–	–
CC1(C)[C@H](C(=O)O[C@H](C#N)c2cccc(Oc3ccccc3)c2)[C@@H]1C(Br)C(Br)(Br)Br (stereo partly drawn) [Tralomethrin, (S)-a-cyano-3-phenoxybenzyl (1R,3S)-2,2-dinethyl-3-(1,2,2,2-tetrabromoethyl)cyclopropane carboxylate]	–	–	+++ (51% or more compared with non-treatment)	>10 mm	–	–	–	–	–	–	–	Damage by eating 14 days later [8]: +++ (51% or more compared with non-treatment); Bored depth (mm) 14 days later [8]: >10 mm; pest or weed control at 0.002 % (Coptotermes, soil, 336 h, Concentration (%) 0.002, single ingredient, read-out: Termite control effect 14 days later): < 49%; pest or weed control at 0.01 % (Coptotermes, soil, 336 h, Concentration (%) 0.01, single ingredient, read-out: Termite control effect 14 days later): < 49%

Source: patent US6472417B1, “Synergistic pesticidal composition of pyrethroid and N-phenyl-pyrazole” (priority 1994, dated 2002)
